Experimental data taken from patent publication US20260207621A1 (Vividion Therapeutics, Inc., priority 2022, published 2026).

Legend:
KEAP1 C151 = target: T1, KEAP1 C151 (Homo sapiens, UniProt Q14145); test: Nrf2 TMT measurement: in vitro TE50 for KEAP1 C151 (IA-DTB competition, targeted TMT mass spectrometry) in MDA-MB-468 cell lysate; type: binding; conditions: in vitro target engagement of KEAP1 C151, targeted TMT, read-out: KEAP1_C151 TE50
T1 construct: treating 500 μg of cell lysate generated from MDA-MB-468 breast cancer cells with DMSO or compound; endogenous in cells; host or cells: MDA-MB-468 breast cancer cell lysate
Method in brief: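 MDA-MB-468 lysate (500 μg) treated with compound for 1 h at room temperature, then 200 μM IA-DTB for 1 h. Labeled peptides streptavidin-enriched after trypsin digest, TMT-labeled and quantified by targeted MS3 on the KEAP1 C151 peptide. IC50 from dose-response curve fitting.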

Nrf2 = Nrf2 antagonism assay: ARE luciferase reporter in KYSE-70 cells; type: cell-based; conditions: positive Imax corresponds to Nrf2 antagonism; for KYSE70 Cellular ARE Luciferase Imax (%): KYSE-70 cells; for Emax: Homo sapiens, KYSE-70, KYSE-70 cells, read-out: KYSE70 Cellular ARE Luciferase Imax (%)
Method in brief: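 KYSE-70 esophageal squamous carcinoma cells carrying Nrf2 W24C (constitutively Nrf2-high) with an ARE-driven luciferase reporter. Loss of luciferase signal reflects Nrf2 antagonism via KEAP1 C151 engagement. IC50 and Imax come from dose-response curves; positive Imax means antagonism.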

T1 sequence (Q14145 whole entry): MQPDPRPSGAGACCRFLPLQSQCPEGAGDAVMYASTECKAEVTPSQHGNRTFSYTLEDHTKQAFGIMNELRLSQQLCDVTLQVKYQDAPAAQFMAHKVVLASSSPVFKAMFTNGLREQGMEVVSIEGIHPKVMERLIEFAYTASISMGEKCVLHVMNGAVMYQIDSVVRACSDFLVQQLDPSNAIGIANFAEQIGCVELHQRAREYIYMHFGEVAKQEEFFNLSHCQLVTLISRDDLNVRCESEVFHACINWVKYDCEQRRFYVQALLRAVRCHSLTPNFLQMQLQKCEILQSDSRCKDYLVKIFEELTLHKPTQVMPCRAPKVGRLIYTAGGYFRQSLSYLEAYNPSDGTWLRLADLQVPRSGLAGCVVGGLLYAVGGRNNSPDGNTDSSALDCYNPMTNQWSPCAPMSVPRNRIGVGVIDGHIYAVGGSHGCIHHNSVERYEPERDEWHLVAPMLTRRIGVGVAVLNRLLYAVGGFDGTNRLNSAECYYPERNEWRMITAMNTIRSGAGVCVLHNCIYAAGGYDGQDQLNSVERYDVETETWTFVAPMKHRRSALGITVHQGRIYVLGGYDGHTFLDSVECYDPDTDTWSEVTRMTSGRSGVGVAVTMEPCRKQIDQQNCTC

Compound	IC50 (KEAP1 C151) [nM]	KYSE70 Cellular ARE Luciferase Imax (%) (Nrf2)	Emax (Nrf2) [%]
C=CC(=O)N1C[C@@H](C)N(C(C)=O)C[C@@H]1c1cc(Cl)cc(-c2ncc(N)cn2)c1 (single isomer, unassigned) [Compound 237]	140	50	–
C=CC(=O)N1CCN(S(C)(=O)=O)C[C@H]1c1cc(Cl)cc(-c2ccnc(N3CCCC3=O)c2)c1 (single isomer, unassigned) [Compound 16]	2.2	–	62
C=CC(=O)N1[C@H](C)COC[C@H]1c1cc(Cl)nc(-c2ccc(F)c(C(N)=O)c2)c1 (single isomer, unassigned) [Compound 139]	74	–	90
C=CC(=O)N1CCS(=O)(=O)CC1c1cc(Cl)cc(-c2ncnc(N)n2)c1 (single isomer, unassigned) [Compound 205, 1-(3-(3-(4-amino-1,3,5-triazin-2-yl)-5-chlorophenyl)-1,1-dioxidothiomorpholino)prop-2-en-1-one]	34	92	–
C=CC(=O)N1[C@H](C)COC[C@H]1c1cc(Cl)cc(-c2cc(N)ncn2)c1 (single isomer, unassigned) [Compound 131]	300	–	91
C=CC(=O)N1CC(C)(C)OC[C@H]1c1cc(Cl)cc(-c2cnc(N)c(N)n2)c1 (single isomer, unassigned) [Compound 286]	32	–	96
C=CC(=O)N1CCOC[C@H]1c1cc(Cl)cc(C2CNC(=O)N(C)C2)c1 (single isomer, unassigned) [Compound 217]	30	78	–
C=CC(=O)N1CCN(S(C)(=O)=O)C[C@H]1c1cc(Cl)cc(-c2ncnc(N)n2)c1 (single isomer, unassigned) [Compound 123]	13	–	73
C=CC(=O)N1[C@H](c2cc(Cl)nc(-c3ccnc(N)n3)c2)COC[C@H]1C(F)F (single isomer, unassigned) [Compound 203]	11	–	87
C=CC(=O)N1CCN(S(C)(=O)=O)C[C@H]1c1cc(Cl)cc(-c2cc[nH]c(=O)c2)c1 (single isomer, unassigned) [Compound 15]	22	–	57
C=CC(=O)N1[C@H](C)COC[C@H]1c1cc(Cl)cc(-c2ccnc(C(N)=O)c2)c1 (single isomer, unassigned) [Compound 134]	63	–	85

Continued, in another order:

IC50 (KEAP1 C151) [nM]	Compound	KYSE70 Cellular ARE Luciferase Imax (%) (Nrf2)	Emax (Nrf2) [%]
30	C=CC(=O)N1CCOC[C@H]1c1cc(Cl)cc(-c2nc(C)nc(N)n2)c1 (single isomer, unassigned) [Compound 178]	–	93
18	C=CC(=O)N1CCOCC1c1cc(Cl)cc(-c2cc(C(N)=O)ncn2)c1 (single isomer, unassigned) [Compound 107, 6-(3-(4-acryloylmorpholin-3-yl)-5-chlorophenyl)pyrimidine-4-carboxamide]	–	92
6.1	C=CC(=O)N1CCOC[C@H]1c1cc(Cl)cc(-c2ncc(N)c(F)n2)c1 (single isomer, unassigned) [Compound 278]	–	87
67	C=CC(=O)N1CCOCC1c1cc(Cl)cc(-c2cc[nH]c(=O)c2)c1 (single isomer, unassigned) [Compound 11, 4-(3-(4-acryloylmorpholin-3-yl)-5-chlorophenyl)pyridin-2(1H)-one]	–	79
150	C=CC(=O)N1CCOC[C@H]1c1cc(Cl)cc(N2CCN=C(N)C2)c1 (single isomer, unassigned) [Compound 244]	–	81
23	C=CC(=O)N1CC(C)(C)OC[C@H]1c1cc(Cl)cc(-c2ncnc(N)n2)c1 (single isomer, unassigned) [Compound 66]	–	93
15.7	C=CC(=O)N1CCOC[C@H]1c1cc(Cl)cc(-c2ccc(F)c(C(N)=O)c2)c1 (single isomer, unassigned) [Compound 44]	–	93
105	C=CC(=O)N1CC(C)(C)OC[C@H]1c1cc(Cl)cc(-c2ncc(N)cn2)c1 (single isomer, unassigned) [Compound 156]	–	94
